Source: publication PMC11188089, “Structural basis for antibiotic transport and inhibition in PepT2, the mammalian proton-coupled peptide transporter” (Research Square, 2024)
Like-named read-outs stand apart in the source and are kept apart here. Where a SMILES comes first, the peptide text is derived from it.

How the values were obtained:
[1] = biological target: T1, PepT2 (Rattus norvegicus, UniProt Q63424); design: gene Slc15a2
T1 sequence (Q63424 1-729): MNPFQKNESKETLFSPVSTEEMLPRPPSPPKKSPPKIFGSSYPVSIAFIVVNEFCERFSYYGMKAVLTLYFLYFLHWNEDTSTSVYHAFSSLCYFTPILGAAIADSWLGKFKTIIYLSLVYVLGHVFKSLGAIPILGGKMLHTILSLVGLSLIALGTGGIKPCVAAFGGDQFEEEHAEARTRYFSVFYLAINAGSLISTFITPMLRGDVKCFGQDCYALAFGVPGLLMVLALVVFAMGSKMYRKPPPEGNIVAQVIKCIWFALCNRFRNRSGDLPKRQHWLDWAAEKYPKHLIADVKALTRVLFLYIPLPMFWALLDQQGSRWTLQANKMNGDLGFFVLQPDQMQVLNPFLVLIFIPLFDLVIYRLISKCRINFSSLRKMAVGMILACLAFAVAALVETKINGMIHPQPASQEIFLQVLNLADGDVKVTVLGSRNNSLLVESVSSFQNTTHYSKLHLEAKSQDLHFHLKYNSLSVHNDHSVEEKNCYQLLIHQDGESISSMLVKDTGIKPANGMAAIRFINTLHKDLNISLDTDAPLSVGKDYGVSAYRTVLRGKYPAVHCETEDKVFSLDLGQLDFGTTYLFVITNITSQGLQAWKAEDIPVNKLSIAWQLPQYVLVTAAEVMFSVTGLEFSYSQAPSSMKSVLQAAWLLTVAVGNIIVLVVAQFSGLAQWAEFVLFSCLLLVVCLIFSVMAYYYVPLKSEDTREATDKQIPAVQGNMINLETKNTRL

[2] = biological target: T1, PepT2; experiment: inhibition of ^3H di-alanine uptake in PepT2 proteoliposomes; counterflow; SSM electrophysiology; format: biochemical; design: gene Slc15a2; purified rat PepT2 reconstituted into liposomes
[3] = biological target: Rattus norvegicus PepT2 (SLC15A2), proton-coupled peptide transporter (Rattus norvegicus) (UniProt Q63424)
[4] = biological target: T2, Rattus norvegicus PepT2 (SLC15A2), proton-coupled peptide transporter (Rattus norvegicus, UniProt Q63424); experiment: cryo-EM structure; PepT2 after SEC (5-6 mg/ml, DDM:CHS) mixed with 1 mM antibiotic (cefadroxil, amoxicillin or cloxacillin) for one hour, then 1.2 molar excess of nanobody D8, on ice for at least 30 minutes; settings: both partners purified
T2 construct: PepT2 (SLC15A2) from Rattus norvegicus; The extracellular domain (ECD) was in the protein but was not built in the deposited models; For the IC50 assay the same purified protein was reconstituted into POPE:POPG liposomes; The Addgene ids 167988 and 167989 are assigned to PepT2 and the nanobody by the order in the sentence; also called rat PepT2; RnPepT2; not shown: GFP, C-terminal, cleaved; His …

## Nc1nc(/C(=C/CC(=O)O)C(=O)N[C@@H]2C(=O)N3C(C(=O)O)=CCS[C@H]23)cs1 [ceftibuten]
[1]
  IC50: 1000 µM

## C[C@H](N)C(=O)N[C@@H](C)C(=O)O [di-alanine] (H-Ala-Ala-OH)
[2]
  IC50: 32 µM

## di-alanine peptide
[3]
  IC50 for inhibition of the uptake of radioactive (3H) di-alanine into rat PepT2 proteoliposomes: 32 µM

B1: nanobody D8 (inhibitory nanobody against rat PepT2) (VHH)
VHH: QVQLVESGGGLVQPGGSLRLLCVASGRPFNDYDMGWFRQAPGKEREFVASISWSGRVTDYSDSMKGRCTVSRDNAKGTMFLQMSNLVPRDTAVYYCAAARRRWTFKATNTEEFYETWGQGTQVTVSS
notes: the nanobody was resolved in the structures solved here (PDB 9BIR, 9BIS, 9BIT, 9BIU); expression plasmid in Addgene; also called the nanobody
[4]
  binding result: binds
